# Values of other authors in patent publication US20110008439A1, “DULOXETIN COMPOSITION” (priority 2006, published 2011).
# Conditions: pH values less than 2.5
structure (smiles),measurement,value
"CNCC[C@H](Oc1cccc2ccccc12)c1cccs1 [Duloxetine, duloxetine]",Stability in solution,unstable
